Assay results taken from US10725042B2, “Methods of diagnosing and treating cancer” (Case Western Reserve University, priority 2012, dated 2020).
pIC50: −log10 of the molar value.

Key:
UDG−/− cells = assay: Replication foci stained with CldU and IdU, UDG−/− cells; format: cell-based, human; conditions: pemetrexed 25 nM, n=10 cells
Protocol: (§1) DNA replication sites were visualized by incorporation of chlorodeoxyuridine (CldU) and iododeoxyuridine (IdU) into DNA. UDG^−/− and UDG^+/+ cells were labeled with 100 μM CldU (ICN, Irvine, Calif.) or IdU (Sigma Chemical Co., St. Louis, Mo.) for 45 min at different time intervals. Cells were washed with PBS, fixed with cold 70% ethanol, and stored at 4° C. For antibody staining, the ethanol was removed, and 100% methanol was added for 5 min. Cells were washed twice with PBS and incubated with 1.5 M HCl for 30 min to denature the DNA. Cells were washed with PBS, permeabilized with 0.5% Tween 20 in PBS for 5 min, and then incubated in 5% BSA (Sigma Chemical Co.) and in PBS for 20 min to reduce nonspecific binding. Primary antibodies CldU (rat anti-BrdU; Accurate Chemical and Science Co., Westbury, N.Y.) and IdU (mouse anti-BrdU; BD Biosciences) were diluted in 1% BSA buffer, added to the slides, and incubated in a humid environment for 2 hrs. Slides were washed with PBS-Tween 20 and then in a high-salt buffer (200 mM NaCl, 0.2% Tween 20, and 0.2% NP-40 in PBS) for 15 min. The samples were incubated with secondary antibodies for 1 h. Finally, slides were washed with PBSTween 20, mounted with Vectashield antifade mounting medium (Vector Laboratories, Inc., Burlingame, Calif.), and stored at 4° C. […] Fluorescence density of CldU or IdU was quantified by NIH image J software.

UDG+/+ cells = assay: Replication foci stained with CldU and IdU, UDG+/+ cells; format: cell-based, human; conditions: pemetrexed 25 nM, n=10 cells
Protocol: as §1

H1975 66 shUNG tumors = assay: H1975 66 shUNG xenografts in NOD-SCID mice; format: in vivo
Protocol: (§2) Tumor cells in early passage (5×10^6) were injected into bilateral flanks of female NODSCID mice (6 weeks old). When tumor volumes reached 100 mm3, mice were divided into control (n=4) and treatment (n=6) groups. Mice bearing tumors were treated with pemetrexed (150 mg/kg) or 100 μl sterile PBS (control) by daily intraperitoneal injection (IP) for 5 consecutive days. Tumor measurements were taken every 2 days and response was quantified by tumor volume.

H1975 67 shUNG cells = assay: Colony survival assay, H1975 67 shUNG cells; format: cell-based; conditions: Homo sapiens, NCI-H1975, read-out: pemetrexed IC50
Protocol: (§3) For cells in suspension, colony survival was determined by crystal violet staining of colonies formed after 10-day exposure of 5×10^3 cells to pemetrexed in soft agar. For adherent cells, colony survival was determined by methylene blue staining of colonies formed after 10-day exposure of 100 cells to pemetrexed in 6-well culture dishes. Only colonies containing ≥50 cells were counted. Data points represent percent of colonies relative to untreated control averaged over 3 experiments.
(§4) UNG directed shRNA and siRNA plasmids were purchased from Origene. Transfection was carried out according to manufacturer specifications. Stably transfected clones (shRNA) were selected with puromycin with subsequent expansion of a well-isolated colony of cells.

A549 parental cells = assay: Colony survival assay, A549 parental cells (Example 2); format: cell-based; conditions: Homo sapiens, read-out: pemetrexed IC50
Protocol: as §3

DLD1/UDG−/− cells = assay: Colony survival (clonogenic) assay, UDG−/− cells; format: cell-based, human
Protocol: Recombinant virus was grown in 293T cells and subsequently used to infect DLD1 cells. Selection of positively transfected clones was achieved by the addition of G418 to the culture medium. A second infection of transfected clones with Cre-recombinase adenovirus caused excision of the neomycin resistance cassette. Dflag cell line was produced by transfection of UDG expression vector in UDG^−/− cells to restore UDG activity.
Tumor cells (500-2000/dish) were plated and treated with pemetrexed (0-400 nM), 5-fluorouracil (0-20 μM), temozolomide (0-1500 μM), or cisplatin (0-40 μM). After 7 days, surviving colonies were stained with methylene blue for 30 min at room temperature and the colonies containing more than 50 cells were counted to generate survival curves.

H1975 cells = assay: Colony survival assay, H1975 parental cells; format: cell-based; conditions: Homo sapiens, NCI-H1975, read-out: pemetrexed IC50
Protocol: as §3

[1] = test system: uracil in DNA of UDG−/− cells; assay: Uracil in DNA by HPLC/MS/MS, UDG−/− cells; format: cell-based, human
Protocol: (§5) UDG^−/− and UDG^+/+ cells were exposed to pemetrexed (10 μM) or 5-fluorouracil (10 μM) for 6, 24, 48 and 72 hrs. At indicated time points, cells were harvested and genomic DNA was extracted by phenol/chloroform. Forty μg of DNA were incubated with 10 U of purified UDG (New England Biolabs) in 60 μL of reaction buffer at 37° C. for 2 hrs. The reaction products were dried at 35° C. in a Turbovap under a stream of nitrogen and reconstituted in 150 μL 90% acetonitrile. The analyte was retained by an Atlantis Hilis Silica analytical column (2.1×100 mm, 3.5 μM) and eluted isocratically by a mixture of 90% acetonitrile and 10% 2.0 mM ammonium formate at a flow rate of 0.2 ml/min. The detection was done by an API 3200 MS/MS mass spectrometer.

H1975 wt tumors = assay: H1975 wt xenografts in NOD-SCID mice; format: in vivo
Protocol: as §2

[2] = test system: uracil in DNA of UDG+/+ cells; assay: Uracil in DNA by HPLC/MS/MS, UDG+/+ cells; format: cell-based, human; conditions: pemetrexed 10 μM, 6-72 hr
Protocol: as §5

A549 siUNG cells = assay: Colony survival assay, A549 siUNG cells; format: cell-based, human
Protocol: as §3, §4

SMILES: Nc1nc2[nH]cc(CCc3ccc(C(=O)N[C@@H](CCC(=O)O)C(=O)O)cc3)c2c(=O)[nH]1 [pemetrexed]
- ratio of IdU to CldU (fluorescence density) (UDG−/− cells; 6-hr sample): 0.1±0.04
- ratio of IdU to CldU (fluorescence density) (UDG−/− cells; 18-hr sample): 0.01±0.005
- ratio of IdU to CldU (fluorescence density) (UDG+/+ cells; 6-hr sample): 0.7±0.13
- ratio of IdU to CldU (fluorescence density) (UDG+/+ cells; 18-hr sample): 0.9±0.31
- tumors smaller than untreated controls (H1975 66 shUNG tumors; H1975 66 shUNG tumors, day 20, pemetrexed 150 mg/kg IP x5): 55.6%
- tumor quadrupling time (H1975 66 shUNG tumors; H1975 shUNG tumors, pemetrexed 150 mg/kg IP, 5 daily injections): 13.67 ± 0.28 days
- pIC50 (H1975 67 shUNG cells): 6.84
- pIC50 (A549 parental cells): 6.38
- pIC50 (DLD1/UDG−/− cells; Homo sapiens, DLD-1, UDG−/− cells, interpolated from dose-response survival curves, read-out: IC50 value for pemetrexed): 7.70
- sensitivity of UDG−/− cells relative to UDG+/+ cells (DLD1/UDG−/− cells; UDG−/− vs UDG+/+): 10 times
- pIC50 (H1975 cells): 6.11
- uracil detected in DNA ([1]; UDG−/− cells, drug 10 μM, 6-72 hr): significant amount of uracil
- uracil accumulation compared to UNG+/+ controls ([1]; UNG−/− human cancer cells exposed to pemetrexed): up to 40 fold
- tumors smaller than untreated controls (H1975 wt tumors; H1975 wild type tumors, day 20, pemetrexed 150 mg/kg IP x5): 37.8%
- tumor quadrupling time (H1975 wt tumors; H1975 wt tumors, pemetrexed 150 mg/kg IP, 5 daily injections): 9.68 ± 0.31 days
- uracil detected in DNA [2]: very low
- sensitivity of A549 siRNA cells compared to parental cells (A549 siUNG cells; A549 siUNG vs parental): 7 fold
- pIC50 (A549 siUNG cells; Homo sapiens, A549 siUNG, colony survival, read-out: pemetrexed IC50): 7.22
